US20120142656A1, “BUCCAL APPLICATION SYSTEM COMPRISING 17A-ESTRADIOL” (BAYER PHARMA AKTIENGESELLSCHAFT, priority 2009, published 2012)

How the values were obtained:
Assay type in all cases: in vivo
[1] = system: postmenopausal or ovarectomized women; assay: double-blind, randomized crossover clinical study: hot flashes (patient diaries, skin temperature); conditions: 0.4 mg buccal tablet
Protocol: (§1) Hot flashes were recorded before the beginning of treatment and on one of the last 3 days of treatment week 4. This was carried out according to subjective criteria (number and severity of the events) using patient diaries and objectively by continuous measurement of the skin temperature.

[2] = system: postmenopausal or ovarectomized women; assay: endometrial thickness by transvaginal ultrasound in clinical study; conditions: 0.4 mg buccal tablet
Protocol: as §1, with “temperature. In addition, the measurement of the endometrial thickness was carried out by transvaginal ultrasound investigations.” for “temperature.”

[3] = system: postmenopausal or ovarectomized women; assay: tolerability: monitoring of undesired events and laboratory investigations in clinical study; conditions: 0.4 mg buccal tablet, versus placebo group
Protocol: as §1, with “temperature. Moreover, the tolerability of the treatment regime was determined by monitoring of undesired events and standardized laboratory investigations.” for “temperature.”

SMILES: C[C@]12CC[C@@H]3c4ccc(O)cc4CC[C@H]3[C@@H]1CC[C@H]2O [17α-estradiol]
- number of hot flashes per 24 h ([1]; after treatment for 4 weeks, before treatment 11.9±2.1, patient diaries): 3.1±1.8 per 24 h
- effect on number and intensity of hot flashes ([1]; drug group versus placebo): rapid reduction of the number and intensity of hot flashes
- endometrial thickness measured by transvaginal ultrasound [2]: not significantly altered
- side-effect profile [3]: comparable
